The assay deals with RPE-1 GFP-LC3B-RPF-LC3∆G reporter cell line. In words: Autophagy flux assay. It counts as cell-based. The note with it: rebuttal letter. The source says: LC3/GABARAP in vitro, but no attempts are made to replicate the previously reported cellular activity of these compounds. It would be beneficial to know whether these compounds have any effect on autophagy in the authors’ hands, and therefore could act by alternative mechanisms, or whether they […]
Response: We were very concerned that the ligands used for ATTEC development might induce general toxicity in cell lines, as they are based on drugs used in oncology (such as the kinesin inhibitor 10O5) and the isoxazole scaffold often used in the development of multi-targeted kinase inhibitors. However, we have now investigated compounds 1-4 in autophagy flux assays using the RPE-1 GFP-LC3B-RPF-LC3∆G reporter cell line (single clone) as […]
reported in [PMID:37558952].
(RR_Figure 6). The authors of the first manuscript reporting these ligands [PMID: 31666698]
However, due to the potent activity of 8F20 on KIF11, which will have profound effects on cell trafficking and growth, and DCAF11 (AN1, [PMID: 38036533]), we find it unlikely that the effects on autophagy are due to LC3/GABARAP modulation. Due to the lack of target (LC3/GABARAP) binding in vitro and the […]
of this review but have excluded the data in the manuscript.
RR_figure 5: Autophagy flux measurement for 10O5 and AN2. No induction of autophagy or effects (right panels, assessed by Incucyte (Sartorius) life cell imaging) on cell growth was […]
RR_figure 6: Autophagy flux measurement for 8F20 and AN1 show changes in autophagy flux […]
It is not clear how many biological replicates have been performed. For example, the figure legends […]

`O=C1Nc2ccc(Br)cc2C1=Cc1cc(O)c(O)c(Br)c1` [compound 1]: the “autophagy induction (autophagy flux)” value is recorded as “significant autophagy activation” and the “effects on cell growth (Incucyte life cell imaging)” value is “profound effects on cell growth”.

As for `O=c1cc(-c2ccccc2)c2c(O)cc(O)cc2o1` [compound 2], the “autophagy induction (autophagy flux)” value is given as “did not induce autophagy” and the “effects on cell growth (Incucyte life cell imaging)” value is “No induction of autophagy or effects”.
